Data: patent publication US12612394B2, “Herbicidal malonamides” (BASF SE, priority 2020, dated 2026)

Key:
AMARE [1] = assay: greenhouse experiment, pre-emergence treatment; assay type: in vivo, Amaranthus retroflexus; settings: application rate 1,000 kg/ha, pre-emergence method
Description: (§1) The culture containers used were plastic flowerpots containing loamy sand with approximately 3.0% of humus as the substrate. The seeds of the test plants were sown separately for each species.
(§2) For the pre-emergence treatment, the active ingredients, which had been suspended or emulsified in water, were applied directly after sowing by means of finely distributing nozzles. The containers were irrigated gently to promote germination and growth and subsequently covered with transparent plastic hoods until the test plants had rooted. This cover caused uniform germination of the test plants, unless this had been impaired by the active ingredients. For the post-emergence treatment, the test plants were first grown to a height of 3 to 15 cm, depending on the plant habit, and only then treated with the active ingredients which had been suspended or emulsified in water. For this purpose, the test plants were either sown directly and grown in the same containers, or they were first grown separately as seedlings and transplanted into the test containers a few days prior to treatment.
(§3) Depending on the species, the test plants were kept at 10-25° C. or 20-35° C., respectively. The test period extended over 2 to 4 weeks. During this time, the test plants were tended, and their response to the individual treatments was evaluated.
(§4) Evaluation was carried out using a scale from 0 to 100. […]

ABUTH = assay: greenhouse experiment, pre-emergence treatment; assay type: in vivo, Abutilon theophrasti; settings: application rate 0.125 kg/ha, pre-emergence method
Description: as §1, §2, §3, §4

AMARE [2] = assay: greenhouse experiment, post-emergence treatment; assay type: in vivo, Amaranthus retroflexus; settings: application rate 0.125 kg/ha, post-emergence method
Description: as §1, §2, §3, §4

ALOMY = assay: greenhouse experiment, pre-emergence treatment; assay type: in vivo, Alopercurus myosuroides; settings: application rate 0.125 kg/ha, pre-emergence method
Description: as §1, §2, §3, §4

SETFA = assay: greenhouse experiment, pre-emergence treatment; assay type: in vivo, Setaria faberi; settings: pre-emergence method
Description: as §1, §2, §3, §4

ECHCG = assay: greenhouse experiment, pre-emergence treatment; assay type: in vivo, Echinocloa crus-galli; settings: application rate 1,000 kg/ha, pre-emergence method
Description: as §1, §2, §3, §4

SETVI = assay: greenhouse experiment, post-emergence treatment; assay type: in vivo, Setaria viridis; settings: application rate 0.250 kg/ha, post-emergence method
Description: as §1, §2, §3, §4

APESV = assay: greenhouse experiment, post-emergence treatment; assay type: in vivo, Apera spica-venti; settings: application rate 0.500 kg/ha, post-emergence method
Description: as §1, §2, §3, §4

CNC(=O)[C@@H]1C[C@H](NC(=O)C(OC)C(=O)Nc2cc(F)cc(F)c2)CO1 (relative stereo) [I.100]
herbicidal activity against AMARE (AMARE [1]): very good (a very good herbicidal activity is given at values of 90 to 100)

COC(C(=O)Nc1cc(Cl)cc(Cl)c1)C(=O)N[C@H]1C=C[C@@H](C(=O)OC2CC2)C1 (relative stereo) [I.185]
herbicidal activity against ABUTH (ABUTH): very good (a very good herbicidal activity is given at values of 90 to 100)

COC(=O)[C@@H]1C=C[C@H](NC(=O)C(OC)C(=O)Nc2cccc(OC(F)(F)C(F)F)c2)C1 (stereo partly shown) [I.192]
herbicidal activity against AMARE (AMARE [2]): good (A good herbicidal activity is given at values of 70 to 90)

COC(C(=O)Nc1cc(Cl)cc(Cl)c1)C(=O)N[C@H]1C=C[C@@H](C(=O)OC(C)C)C1 (stereo partly shown) [I.159]
herbicidal activity against ALOMY (ALOMY): very good (a very good herbicidal activity is given at values of 90 to 100) | herbicidal activity against SETFA (SETFA; application rate 0.125 kg/ha): very good (a very good herbicidal activity is given at values of 90 to 100)

COC(=O)[C@H]1C[C@@H](NC(=O)C(OC)C(=O)Nc2cc(Cl)cc(Cl)c2)CO1 (relative stereo) [I.40, methyl cis-4-[[3-(3,5-dichloroanilino)-2-methoxy-3-oxo-propanoyl]amino]tetrahydrofuran-2-carboxylate]
herbicidal activity against ECHCG (ECHCG): very good (a very good herbicidal activity is given at values of 90 to 100)

COC(=O)C1C=CC(NC(=O)C(OC(F)F)C(=O)Nc2cc(Cl)cc(Cl)c2)C1 (stereo not shown) [I.173]
herbicidal activity against SETFA (SETFA; application rate 0.250 kg/ha): good (A good herbicidal activity is given at values of 70 to 90)

COC(=O)[C@@H]1C=C[C@H](NC(=O)C(OC)C(=O)Nc2cc(OC)c(C)c(OC)c2)C1 (stereo partly shown) [I.197]
herbicidal activity against SETVI (SETVI): good (A good herbicidal activity is given at values of 70 to 90)

COC(=O)CC(NC(=O)C(OC)C(=O)Nc1cc(Cl)cc(Cl)c1)C(F)(F)F (stereo not shown) [I.42]
herbicidal activity against APESV (APESV): good (A good herbicidal activity is given at values of 70 to 90)

COC(C(=O)Nc1cc(Cl)cc(Cl)c1)C(=O)NC1CO[C@@H](C(=O)O)C1 (stereo in doubt) [I.60, cis-4-[[3-(3,5-dichloroanilino)-2-methoxy-3-oxo-propanoyl]amino]tetrahydrofuran-2-carboxylate]
herbicidal activity against ECHCG (ECHCG): good (A good herbicidal activity is given at values of 70 to 90)
